≈ marks a conversion by molar mass, not a printed value. Where two headings read alike, the source gives them in different places. Ends that are not written are not given here.
Key:
[1] = test system: Bacillus subtilis AB91021; test: MIC, broth microdilution; type: cell-based; details: LB medium, 10^5–10^6 CFU/mL, 16–18 h at 37°C, triplicate
Procedure: (§1) The antimicrobial activity was determined via a broth microdilution assay according to the procedure recommended by the Clinical and Laboratory Standards Institute with some modifications ([Hou et al., 2011]; [Li et al., 2016]). Bacteria were cultured in Luria-Bertani (LB) broth to OD600 = 0.6 at 37°C, then diluted to 10^5–10^6 CFU/mL in LB medium. Peptides were serially double diluted to a gradient concentration range from 48.3 to 1.5 μM in physiological saline. Eighty microliters of the bacterial suspension and 20 μL of diluted peptide at varying concentrations were added to 96-well plates, and then incubated for 16–18 h at 37°C with continuous shaking at 250 rpm. The antimicrobial activity of ampicillin and kanamycin were also tested as positive controls. Experiments were performed in triplicate. The minimum inhibitory concentration (MIC) was determined as the lowest peptide concentration at which no bacterial growth was observed.

[2] = test system: Micrococcus luteus AB93113; test: MIC, broth microdilution; type: cell-based; details: LB medium, 10^5–10^6 CFU/mL, 16–18 h at 37°C, triplicate
Procedure: as §1

[3] = test system: Staphylococcus aureus ATCC25923; test: MIC, broth microdilution; type: cell-based; details: LB medium, 10^5–10^6 CFU/mL, 16–18 h at 37°C, triplicate
Procedure: as §1

[4] = test system: Staphylococcus aureus ATCC6538; test: MIC, broth microdilution; type: cell-based; details: LB medium, 10^5–10^6 CFU/mL, 16–18 h at 37°C, triplicate
Procedure: as §1

[5] = test system: Staphylococcus epidermidis AB208188; test: MIC, broth microdilution; type: cell-based; details: LB medium, 10^5–10^6 CFU/mL, 16–18 h at 37°C, triplicate
Procedure: as §1

Escherichia coli AB94012 = test: MIC, broth microdilution; type: cell-based; details: LB medium, 10^5–10^6 CFU/mL, 16–18 h at 37°C, triplicate
Procedure: as §1

[6] = test system: Escherichia coli ATCC25922; test: MIC, broth microdilution; type: cell-based; details: LB medium, 10^5–10^6 CFU/mL, 16–18 h at 37°C, triplicate
Procedure: as §1

[7] = test system: Pseudomonas aeruginosa ATCC9027; test: MIC, broth microdilution; type: cell-based; details: LB medium, 10^5–10^6 CFU/mL, 16–18 h at 37°C, triplicate
Procedure: as §1

[8] = test system: Staphylococcus epidermidis AB208187; test: MIC, broth microdilution; type: cell-based; details: LB medium, 10^5–10^6 CFU/mL, 16–18 h at 37°C, triplicate
Procedure: as §1

[9] = test system: Bacillus thuringiensis AB92037; test: MIC, broth microdilution; type: cell-based; details: LB medium, 10^5–10^6 CFU/mL, 16–18 h at 37°C, triplicate
Procedure: as §1

[10] = test system: Staphylococcus aureus AB208193; test: MIC, broth microdilution; type: cell-based; details: LB medium, 10^5–10^6 CFU/mL, 16–18 h at 37°C, triplicate
Procedure: as §1

MRSA P1381 = test: MIC, broth microdilution; type: cell-based, Staphylococcus aureus; details: methicillin-resistant clinical isolate, LB medium, 10^5–10^6 CFU/mL, 16–18 h at 37°C, triplicate
Procedure: as §1

PRSA P1389 = test: MIC, broth microdilution; type: cell-based, Staphylococcus aureus; details: penicillin-resistant clinical isolate, LB medium, 10^5–10^6 CFU/mL, 16–18 h at 37°C, triplicate
Procedure: as §1

MRSA P1374 = test: MIC, broth microdilution; type: cell-based, Staphylococcus aureus; details: methicillin-resistant clinical isolate, LB medium, 10^5–10^6 CFU/mL, 16–18 h at 37°C, triplicate
Procedure: as §1

S. aureus AB94004 = test: Competition assay with LPS or LTA (MIC); type: cell-based, Staphylococcus aureus; details: 30 min, n = 3; for MIC, peptide treated with LPS 1: 1 mg/mL peptide + equal volume 5 mg/mL LPS from E. coli; for MIC, peptide treated with LTA: 1 mg/mL peptide + equal volume 5 mg/mL LTA from S. aureus; for MIC, peptide treated with LPS 1+LTA: peptide incubated with LPS 1 and LTA
Procedure: 1 mg/mL of peptides were incubated with an equal volume of 5 mg/mL of the lipopolysaccharide (LPS, Sigma-Aldrich: L3012/L8643) or lipoteichoic acid (LTA, Sigma-Aldrich: L2515) for 30 min. The MICs of peptides treated with LPS or LTA against S. aureus AB94004 were subsequently measured.

[11] = test system: Escherichia coli ATCC25922; details: comparison values; ref Zeng et al., 2004, 2012; Cao et al., 2012a; cited from earlier work
From the text: (§2) Table 1 In Vitro antimicrobial activities of marcin-18 and its homologs compared with other peptides and antibiotics. | column: MIC (μM) / BmKn2; MIC (μM) / Amp; MIC (μM) / Kana

[12] = test system: Staphylococcus aureus AB94004; details: comparison values; ref Zeng et al., 2004, 2012; Cao et al., 2012a; cited from earlier work
From the text: as §2

[13] = test system: Bacillus subtilis AB91021; details: comparison values; ref Zeng et al., 2004, 2012; Cao et al., 2012a; cited from earlier work
From the text: Table 1 In Vitro antimicrobial activities of marcin-18 and its homologs compared with other peptides and antibiotics. | column: MIC (μM) / BmKn2; MIC (μM) / BmKb1; MIC (μM) / Kana

[14] = test system: Staphylococcus aureus AB94004; test: MIC, broth microdilution; type: cell-based; details: legend of Figure 6
Procedure: as §1

[15] = test system: Staphylococcus aureus ATCC25923; details: comparison values; ref Zeng et al., 2004, 2012; Cao et al., 2012a; cited from earlier work
From the text: Table 1 In Vitro antimicrobial activities of marcin-18 and its homologs compared with other peptides and antibiotics. | column: MIC (μM) / BmKn2; MIC (μM) / Kana

Row | Compound | MIC [1] | MIC [2] | MIC [3] | MIC [4] | MIC [5] | MIC (Escherichia coli AB94012) | MIC [6] | MIC [7] | MIC [8] | MIC [9] | MIC [10] | MIC (MRSA P1381) | MIC (PRSA P1389) | MIC (MRSA P1374) | MIC, peptide treated with LPS 1 (S. aureus AB94004) | MIC, peptide treated with LTA (S. aureus AB94004) | MIC, peptide treated with LPS 1+LTA (S. aureus AB94004) | further results
1 | FFGHLFKLATKIIPSLFQ-NH2 [Meucin-18] | 3.0 µM | 47.5 µM | 3.0 µM | 1.5 µM | 1.5 µM | 23.7 µM | 11.9 µM | 11.9 µM | 3.0 µM | 3.0 µM | 3.0 µM | 1.5 µM | 3.0 µM | 3.0 µM |  |  |  | 
2 | FFGALFKLATKIIPSLFR-NH2 [Megicin-18] | 3.0 µM | >48.3 µM | 3.0 µM | 1.5 µM | 1.5 µM | >48.3 µM | 12.1 µM | 12.1 µM | 1.5 µM | 1.5 µM | 3.0 µM | 3.0 µM | 1.5 µM | 3.0 µM | 3 µM | 3 µM | 3 µM | 
3 | FFGHLFKLATKIIPSLFR-NH2 [Marcin-18] | 2.9 µM | 23.4 µM | 2.9 µM | 1.5 µM | 2.9 µM | 11.7 µM | 5.9 µM | 5.9 µM | 2.9 µM | 2.9 µM | 2.9 µM | 1.5 µM | 2.9 µM | 2.9 µM | 2.9 µM | 2.9 µM | 2.9 µM | MIC, peptide treated with LPS 2 (S. aureus AB94004; 1 mg/mL peptide + equal volume 5 mg/mL LPS from P. aeruginosa): 2.9 µM
4 | NC[C@H]1O[C@H](O[C@H]2[C@H](O)[C@@H](O[C@H]3O[C@H](CO)[C@@H](O)[C@H](N)[C@H]3O)[C@H](N)C[C@@H]2N)[C@H](O)[C@@H](O)[C@@H]1O [Kana, kanamycin] |  |  |  |  |  |  |  |  |  |  |  |  |  |  |  |  |  | MIC [11]: 21.5 µM (≈ 10.4 µg/mL); MIC [12]: 5.4 µM (≈ 2.62 µg/mL); MIC [13]: 42.9 µM (≈ 20.8 µg/mL); MIC of control substances [14]: 5.4 µM; MIC [15]: 10.7 µM (≈ 5.18 µg/mL)

— publication PMC5987058, “Therapeutic Potential of a Scorpion Venom-Derived Antimicrobial Peptide and Its Homologs Against Antibiotic-Resistant Gram-Positive Bacteria” (Frontiers in Microbiology, 2018)
